Reference: the CheMixHub viscosity set

Experiment: xn = mol fraction of the nth substance listed

CCCCCCCCCCCC(=O)OCC + CCCCCCO
viscosity [mPa·s], 101.33 kPa
Conditions | 293.15 K | 298.15 K | 303.15 K | 308.15 K | 313.15 K | 318.15 K | 323.15 K
x2 = 0.1 | 3.266 | 2.909 | 2.623 | 2.367 | 2.136 | 1.965 | 1.778
x2 = 0.2 | 3.214 | 2.867 | 2.596 | 2.334 | 2.09 | 1.918 | 1.731
x2 = 0.2999 | 3.216 | 2.872 | 2.575 | 2.309 | 2.095 | 1.896 | 1.724
x2 = 0.4 | 3.215 | 2.868 | 2.57 | 2.296 | 2.067 | 1.883 | 1.695
x2 = 0.4999 | – | 2.906 | 2.597 | 2.316 | 2.073 | 1.896 | 1.7
x2 = 0.5 | 3.25 | – | – | – | – | – | –
x2 = 0.5999 | 3.374 | – | – | – | – | – | –
x2 = 0.6 | – | 3.01 | 2.673 | 2.379 | 2.13 | 1.942 | 1.725
x2 = 0.7 | 3.486 | 3.101 | 2.771 | 2.459 | 2.186 | 1.965 | 1.761
x2 = 0.8 | 3.852 | 3.366 | 2.979 | 2.621 | 2.316 | 2.079 | 1.848
x2 = 0.8999 | 4.374 | – | – | – | – | – | –
x2 = 0.9 | – | 3.769 | 3.316 | 2.902 | 2.568 | 2.261 | 1.972

CCN(CC)c1ccccc1 + CCCCCCO
viscosity [mPa·s], 100 kPa
Conditions | x1 = 0.1057 | x1 = 0.1952 | x1 = 0.3004 | x1 = 0.4021 | x1 = 0.5011 | x1 = 0.6117 | x1 = 0.7135 | x1 = 0.8163 | x1 = 0.9045
303.15 K | 3.391 | 3.041 | 2.695 | 2.423 | 2.207 | 2.014 | 1.879 | 1.78 | 1.725
308.15 K | 2.85 | 2.524 | 2.226 | 1.997 | 1.814 | 1.667 | 1.577 | 1.525 | 1.501
313.15 K | 2.403 | 2.096 | 1.835 | 1.652 | 1.518 | 1.405 | 1.332 | 1.297 | 1.313
318.15 K | 2.105 | 1.801 | 1.569 | 1.421 | 1.314 | 1.218 | 1.151 | 1.119 | 1.148

CCCCC(CC)COC(C)=O (stereo not drawn) + CCCCCO
viscosity [mPa·s], 101.33 kPa
Conditions | x1 = 0.1041 | x1 = 0.2073 | x1 = 0.3002 | x1 = 0.4211 | x1 = 0.4987 | x1 = 0.6 | x1 = 0.7008 | x1 = 0.8092 | x1 = 0.9033
293.15 K | 3.692 | 3.321 | 3.019 | 2.666 | 2.462 | 2.219 | 2 | 1.79 | 1.625
303.15 K | 2.68 | 2.451 | 2.262 | 2.037 | 1.905 | 1.745 | 1.599 | 1.456 | 1.342
313.15 K | 2.119 | 1.955 | 1.818 | 1.653 | 1.556 | 1.437 | 1.328 | 1.22 | 1.134
323.15 K | 1.255 | 1.209 | 1.169 | 1.119 | 1.087 | 1.048 | 1.01 | 0.971 | 0.938

CCCCCCCCCCCC(=O)OCC + CCCCCO
viscosity [mPa·s], 101.33 kPa
Conditions | x2 = 0.1 | x2 = 0.2 | x2 = 0.2999 | x2 = 0.4 | x2 = 0.4999 | x2 = 0.6 | x2 = 0.7 | x2 = 0.8 | x2 = 0.9
293.15 K | 3.228 | 3.128 | 3.064 | 3.018 | 2.992 | 2.994 | 3.044 | 3.147 | 3.437
298.15 K | 2.884 | 2.802 | 2.741 | 2.699 | 2.68 | 2.667 | 2.706 | 2.783 | 3.024
303.15 K | 2.603 | 2.515 | 2.46 | 2.424 | 2.387 | 2.383 | 2.403 | 2.479 | 2.663
308.15 K | 2.349 | 2.275 | 2.238 | 2.173 | 2.141 | 2.131 | 2.142 | 2.201 | 2.351
313.15 K | 2.12 | 2.065 | 2.014 | 1.954 | 1.926 | 1.913 | 1.919 | 1.963 | 2.074
318.15 K | 1.948 | 1.888 | 1.852 | 1.801 | 1.765 | 1.745 | 1.735 | 1.776 | 1.867
323.15 K | 1.759 | 1.699 | 1.658 | 1.601 | 1.569 | 1.546 | 1.553 | 1.584 | 1.652

CCCCC(CC)COC(C)=O (stereo not drawn) + CCCCO
viscosity [mPa·s], 101.33 kPa
Conditions | x1 = 0.0991 | x1 = 0.2017 | x1 = 0.2984 | x1 = 0.4115 | x1 = 0.5002 | x1 = 0.6078 | x1 = 0.7049 | x1 = 0.8061 | x1 = 0.9005
293.15 K | 2.681 | 2.504 | 2.344 | 2.177 | 2.052 | 1.91 | 1.791 | 1.674 | 1.572
303.15 K | 2.139 | 2.01 | 1.894 | 1.768 | 1.675 | 1.568 | 1.478 | 1.389 | 1.311
313.15 K | 1.605 | 1.529 | 1.461 | 1.386 | 1.329 | 1.264 | 1.207 | 1.151 | 1.101
323.15 K | 1.07 | 1.05 | 1.031 | 1.01 | 0.994 | 0.974 | 0.957 | 0.939 | 0.923

CCCN(CCC)CCC + CCCCO
303.15 K, 101 kPa
Conditions | viscosity [mPa·s]
x1 = 0.01186 | 2.225
x1 = 0.01943 | 2.201
x1 = 0.03035 | 2.178
x1 = 0.03999 | 2.157
x1 = 0.05088 | 2.133
x1 = 0.0617 | 2.112
x1 = 0.07408 | 2.085
x1 = 0.08019 | 2.074
x1 = 0.08635 | 2.059

ClCCCCl + CCCCO
viscosity [mPa·s], 101 kPa
Conditions | x1 = 0.0958 | x1 = 0.2016 | x1 = 0.3004 | x1 = 0.3983 | x1 = 0.5002 | x1 = 0.5993 | x1 = 0.6997 | x1 = 0.7997 | x1 = 0.9
298.15 K | 2.139 | 1.773 | 1.512 | 1.32 | 1.177 | 1.071 | 0.9963 | 0.9461 | 0.9256
313.15 K | 1.488 | 1.261 | 1.101 | 0.9831 | 0.8935 | 0.8317 | 0.7876 | 0.76 | 0.7528

CCN(CC)c1ccccc1 + CCCCOCCO
viscosity [mPa·s], 101.3 kPa
Conditions | x2 = 0.0979 | x2 = 0.2008 | x2 = 0.289 | x2 = 0.3526 | x2 = 0.4964 | x2 = 0.5968 | x2 = 0.7021 | x2 = 0.794 | x2 = 0.8979
298 K | 1.87 | 1.887 | 1.923 | 1.968 | 2.102 | 2.198 | 2.343 | 2.461 | 2.631
303 K | 1.679 | 1.686 | 1.711 | 1.756 | 1.853 | 1.942 | 2.067 | 2.175 | 2.305
308 K | 1.511 | 1.516 | 1.538 | 1.572 | 1.655 | 1.731 | 1.844 | 1.927 | 2.048
313 K | 1.369 | 1.371 | 1.393 | 1.429 | 1.487 | 1.552 | 1.65 | 1.725 | 1.824
318 K | 1.248 | 1.249 | 1.262 | 1.286 | 1.365 | 1.402 | 1.481 | 1.544 | 1.631

CCCCCCCCCCCC(=O)OCC + CCCO
viscosity [mPa·s], 101.33 kPa
Conditions | x2 = 0.1001 | x2 = 0.2003 | x2 = 0.3 | x2 = 0.3999 | x2 = 0.5 | x2 = 0.5999 | x2 = 0.7 | x2 = 0.8 | x2 = 0.9
293.15 K | 3.214 | 3.059 | 2.924 | 2.798 | 2.671 | 2.547 | 2.426 | 2.307 | 2.215
298.15 K | 2.875 | 2.742 | 2.62 | 2.504 | 2.398 | 2.286 | 2.175 | 2.078 | 1.997
303.15 K | 2.579 | 2.464 | 2.353 | 2.252 | 2.15 | 2.052 | 1.956 | 1.869 | 1.786
308.15 K | 2.32 | 2.218 | 2.12 | 2.025 | 1.936 | 1.845 | 1.756 | 1.674 | 1.6
313.15 K | 2.108 | 2.013 | 1.919 | 1.833 | 1.749 | 1.669 | 1.59 | 1.513 | 1.44
318.15 K | 1.935 | 1.849 | 1.767 | 1.688 | 1.609 | 1.531 | 1.454 | 1.381 | 1.315
323.15 K | 1.748 | 1.67 | 1.595 | 1.522 | 1.451 | 1.382 | 1.315 | 1.251 | 1.188

CCCC[NH3+].O=[N+]([O-])[O-] + CCCO
Conditions | viscosity [mPa·s]
293.15 K, 101 kPa, x1 = 0.9008 | 83.35

Clc1ccc(Cl)c(Cl)c1 + CCNc1ccccc1
viscosity [mPa·s], 101 kPa
Conditions | 303.15 K | 308.15 K
x2 = 0.0875 | 1.784 | 1.618
x2 = 0.1559 | 1.783 | 1.615
x2 = 0.2286 | 1.782 | 1.612
x2 = 0.2938 | 1.781 | 1.609
x2 = 0.3656 | 1.779 | 1.607
x2 = 0.4225 | 1.777 | 1.604
x2 = 0.4952 | 1.775 | 1.6
x2 = 0.5659 | 1.772 | 1.595
x2 = 0.6359 | 1.768 | 1.589
x2 = 0.7025 | 1.763 | 1.584
x2 = 0.7812 | 1.758 | 1.577
x2 = 0.8525 | 1.752 | 1.571
x2 = 0.9199 | 1.748 | 1.565

CCCC(C)CO (stereo not drawn) + CCO
298.15 K, 101.33 kPa
Conditions | viscosity [mPa·s]
x2 = 0.1048 | 4.615
x2 = 0.2134 | 3.996
x2 = 0.3147 | 3.481
x2 = 0.4122 | 3.014
x2 = 0.5011 | 2.664
x2 = 0.6144 | 2.253
x2 = 0.7136 | 1.884
x2 = 0.7984 | 1.623
x2 = 0.9049 | 1.303

CC[n+]1ccn(C)c1.NCC(=O)[O-] + CCn1cc[n+](C)c1.N#C[C-](C#N)C#N
Conditions | viscosity [mPa·s]
313.15 K, 101 kPa, x2 = 0.5001 | 22.25

CCCC(C)CO (stereo not drawn) + CO
298.15 K, 101.33 kPa
Conditions | viscosity [mPa·s]
x2 = 0.0849 | 4.645
x2 = 0.2146 | 3.757
x2 = 0.3193 | 3.053
x2 = 0.4183 | 2.526
x2 = 0.5192 | 2.018
x2 = 0.6077 | 1.676
x2 = 0.7069 | 1.296
x2 = 0.8045 | 1.018
x2 = 0.9002 | 0.7552

CN1CCOC1=O + CS(C)=O
viscosity [mPa·s], 101.33 kPa
Conditions | 298.15 K | 308.15 K | 318.15 K
x1 = 0.0465 | 2.004 | 1.663 | 1.404
x1 = 0.0841 | 2.012 | 1.673 | 1.413
x1 = 0.1676 | 2.037 | 1.698 | 1.437
x1 = 0.2419 | 2.06 | 1.72 | 1.459
x1 = 0.3415 | 2.09 | 1.751 | 1.49
x1 = 0.4275 | 2.126 | 1.782 | 1.518
x1 = 0.5401 | 2.171 | 1.826 | 1.558
x1 = 0.6395 | 2.218 | 1.872 | 1.603
x1 = 0.7524 | 2.28 | 1.923 | 1.645
x1 = 0.8785 | 2.359 | 1.99 | 1.703
x1 = 0.9514 | 2.415 | 2.038 | 1.744

CC1(C)OC1C#N (stereo not drawn) + ClC(Cl)(Cl)Cl
viscosity [mPa·s], 101 kPa
Conditions | 293.15 K | 298.15 K | 303.15 K | 313.15 K | 323.15 K
x1 = 0.009 | 0.983 | 0.938 | 0.906 | 0.779 | 0.67
x1 = 0.087 | 0.98 | 0.937 | 0.877 | 0.754 | 0.675
